Measured values reported in ChEMBL document CHEMBL5143564, “PES derivative PESA is a potent tool to globally profile cellular targets of PES” (Bioorg Med Chem Lett, 2022).
Blank lines part the entries; values can stand above or below the molecule they belong to. Active and inactive are the calls of the source. The calls are words filed in the database; no cut-off is given here.

Columns and labels:
[1] = GSH reactivity in pH 7.4 buffer assessed as GSH adduct formation at 1 mM by HPLC analysis; assay type: physicochemical; conditions: pH 7.4, 1000 µM
[2] = GSH reactivity in pH 7.4 buffer assessed as GSH adduct formation by measuring molecular weight at 1 mM by Q-TOF LC/MS analysis; assay type: physicochemical; conditions: pH 7.4, 1000 µM
[3] = GSH reactivity in pH 7.4 buffer assessed as GSH adduct formation by measuring half life at 50 uM by near-UV absorbance spectra analysis; assay type: physicochemical; conditions: pH 7.4, 50 µM
[4] = species: Homo sapiens; assay: Binding affinity to ADP-bound full-length human HSP70 assessed as cysteine adduct formation at SBDalpha domain by measuring half life at 1 mM by fluorescence spectra analysis
[5] = species: Homo sapiens; assay: Binding affinity to human HSP70 SBDalpha domain (537 to 610 residues) C574S mutant assessed as Cys603 adduct formation by size exclusion chromatography
[6] = species: Homo sapiens; assay: Binding affinity to ADP-bound full-length human HSP70 assessed as Cys603 adduct formation by size exclusion chromatography
[7] = test system: HEK-293T; assay: Cytotoxicity against HEK293T cells up to 20 uM measured after 24 hrs; assay type: toxicity, cell-based; conditions: human
[8] = test system: Jurkat; assay: Cytotoxicity against human Jurkat T cells up to 20 uM measured after 24 hrs; assay type: functional, cell-based
[9] = test system: DOHH-2; assay: Cytotoxicity against human DOHH-2 cells up to 20 uM measured after 24 hrs; assay type: functional, cell-based
[10] = test system: Jurkat; assay: Cytotoxicity against human Jurkat T cells measured after 72 hrs; assay type: functional, cell-based
[11] = test system: DOHH-2; assay: Cytotoxicity against human DOHH-2 cells measured after 72 hrs; assay type: functional, cell-based
[12] = test system: MDA-MB-453; assay: Cytotoxicity against human MDA-MB-453 cells measured after 72 hrs; assay type: functional, cell-based
[13] = test system: HepG2; assay: Cytotoxicity against human HepG2 cells measured after 72 hrs; assay type: functional, cell-based
[14] = test system: DOHH-2; assay: Induction of apoptosis in human DOHH-2 cells assessed as increase in cleaved caspase-3 expression at 12 uM measured after 4 to 24 hrs by Western blot analysis; assay type: functional, cell-based; conditions: time 4-24 hrs
[15] = test system: DOHH-2; assay: Induction of apoptosis in human DOHH-2 cells assessed as increase in cleaved PARP expression at 12 uM measured after 4 to 24 hrs by Western blot analysis; assay type: functional, cell-based; conditions: time 4-24 hrs
[16] = test system: DOHH-2; assay: Induction of apoptosis in human DOHH-2 cells assessed as increase in cleaved caspase-3 expression at 0.5 to 12 uM measured after 24 hrs by Western blot analysis; assay type: functional, cell-based; conditions: dose 0.5-12 µM
[17] = test system: DOHH-2; assay: Induction of apoptosis in human DOHH-2 cells assessed as increase in cleaved PARP expression at 0.5 to 12 uM measured after 24 hrs by Western blot analysis; assay type: functional, cell-based; conditions: dose 0.5-12 µM
[18] = test system: DOHH-2; assay: Induction of autophagy in human DOHH-2 cells assessed as reduction in p62 expression at 12 uM measured after 4 to 24 hrs by Western blot analysis; assay type: functional, cell-based; conditions: time 4-24 hrs
[19] = test system: DOHH-2; assay: Induction of autophagy in human DOHH-2 cells assessed as reduction in p62 expression at 0.5 to 12 uM measured after 24 hrs by Western blot analysis; assay type: functional, cell-based; conditions: dose 0.5-12 µM
[20] = test system: DOHH-2; assay: Induction of autophagy in human DOHH-2 cells assessed as change in transformation of LC3B1 to LC3B2 expression at 12 uM measured after 4 to 24 hrs by Western blot analysis; assay type: functional, cell-based; conditions: time 4-24 hrs
[21] = test system: DOHH-2; assay: Induction of autophagy in human DOHH-2 cells assessed as change in transformation of LC3B1 to LC3B2 expression at 0.5 to 12 uM measured after 24 hrs by Western blot analysis; assay type: functional, cell-based; conditions: dose 0.5-12 µM
[22] = test system: DOHH-2; assay: Up regulation of HSP70 expression in human DOHH-2 cells at 12 uM measured after 4 to 24 hrs by Western blot analysis; assay type: functional, cell-based; conditions: time 4-24 hrs
[23] = test system: DOHH-2; assay: Up regulation of HSP70 expression in human DOHH-2 cells at 0.5 to 12 uM measured after 24 hrs by Western blot analysis; assay type: functional, cell-based; conditions: dose 0.5-12 µM
[24] = test system: DOHH-2; assay: Up regulation of HSP90alpha expression in human DOHH-2 cells at 12 uM measured after 4 to 24 hrs by Western blot analysis; assay type: functional, cell-based; conditions: time 4-24 hrs
[25] = test system: DOHH-2; assay: Up regulation of HSP90alpha expression in human DOHH-2 cells at 0.5 to 12 uM measured after 24 hrs by Western blot analysis; assay type: functional, cell-based; conditions: dose 0.5-12 µM
[26] = test system: DOHH-2; assay: Induction of apoptosis in human DOHH-2 cells assessed as increase in cleaved caspase-3 expression at 10 uM measured after 4 to 24 hrs by Western blot analysis; assay type: functional, cell-based; conditions: time 4-24 hrs
[27] = test system: DOHH-2; assay: Induction of apoptosis in human DOHH-2 cells assessed as increase in cleaved PARP expression at 10 uM measured after 4 to 24 hrs by Western blot analysis; assay type: functional, cell-based; conditions: time 4-24 hrs
[28] = test system: DOHH-2; assay: Induction of apoptosis in human DOHH-2 cells assessed as increase in cleaved caspase-3 expression at 0.5 to 10 uM measured after 24 hrs by Western blot analysis; assay type: functional, cell-based; conditions: dose 0.5-10 µM
[29] = test system: DOHH-2; assay: Induction of apoptosis in human DOHH-2 cells assessed as increase in cleaved PARP expression at 0.5 to 10 uM measured after 24 hrs by Western blot analysis; assay type: functional, cell-based; conditions: dose 0.5-10 µM
[30] = test system: DOHH-2; assay: Induction of autophagy in human DOHH-2 cells assessed as reduction in p62 expression at 10 uM measured after 4 to 24 hrs by Western blot analysis; assay type: functional, cell-based; conditions: time 4-24 hrs
[31] = test system: DOHH-2; assay: Induction of autophagy in human DOHH-2 cells assessed as reduction in p62 expression at 0.5 to 10 uM measured after 24 hrs by Western blot analysis; assay type: functional, cell-based; conditions: dose 0.5-10 µM
[32] = test system: DOHH-2; assay: Induction of autophagy in human DOHH-2 cells assessed as change in transformation of LC3B1 to LC3B2 expression at 10 uM measured after 4 to 24 hrs by Western blot analysis; assay type: functional, cell-based; conditions: time 4-24 hrs
[33] = test system: DOHH-2; assay: Induction of autophagy in human DOHH-2 cells assessed as change in transformation of LC3B1 to LC3B2 expression at 0.5 to 10 uM measured after 24 hrs by Western blot analysis; assay type: functional, cell-based; conditions: dose 0.5-10 µM
[34] = test system: DOHH-2; assay: Up regulation of HSP70 expression in human DOHH-2 cells at 10 uM measured after 4 to 24 hrs by Western blot analysis; assay type: functional, cell-based; conditions: time 4-24 hrs
[35] = test system: DOHH-2; assay: Up regulation of HSP70 expression in human DOHH-2 cells at 0.5 to 10 uM measured after 24 hrs by Western blot analysis; assay type: functional, cell-based; conditions: dose 0.5-10 µM
[36] = test system: DOHH-2; assay: Up regulation of HSP90alpha expression in human DOHH-2 cells at 10 uM measured after 4 to 24 hrs by Western blot analysis; assay type: functional, cell-based; conditions: time 4-24 hrs
[37] = test system: DOHH-2; assay: Up regulation of HSP90alpha expression in human DOHH-2 cells at 0.5 to 10 uM measured after 24 hrs by Western blot analysis; assay type: functional, cell-based; conditions: dose 0.5-10 µM

- Activity [1]: Active
- Activity [2]: 489 Da
- t1/2 [3]: 12.26 min
- T1/2 [4]: 272 min
- Activity [5]: Active
- Activity [6]: Active
SMILES: NS(=O)(=O)C#Cc1ccccc1
- Activity [7]: Non-Toxic
- Activity [8]: Active
- Activity [9]: Active
- Activity [10]: Active
- Activity [11]: Active
- Activity [12]: Active
- Activity [13]: Active
- Activity [14]: Active
- Activity [15]: Active
- Activity [16]: Active
- Activity [17]: Active
- Activity [18]: Active
- Activity [19]: Active
- Activity [20]: Active
- Activity [21]: Active
- Activity [22]: Active
- Activity [23]: Active
- Activity [24]: Active
- Activity [25]: Active

- t1/2 [3]: 2.97 min
- T1/2 [4]: 59.9 min
- Activity [5]: Active
- Activity [6]: Active
SMILES: NS(=O)(=O)C#Cc1cccc(Cl)c1
- Activity [7]: Non-Toxic
- Activity [8]: Active
- Activity [9]: Active
- Activity [10]: Active
- Activity [11]: Active
- Activity [12]: Active
- Activity [13]: Active
- Activity [26]: Active
- Activity [27]: Active
- Activity [28]: Active
- Activity [29]: Active
- Activity [30]: Active
- Activity [31]: Active
- Activity [32]: Active
- Activity [33]: Active
- Activity [34]: Active
- Activity [35]: Active
- Activity [36]: Active
- Activity [37]: Active
